Values joined by “and” are separate entries in the source; they are usually repeats but may differ in a detail not shown here. Identical values can stand only once.
Assays:
[1] = tested on: Botrytis cinerea; test: Treatment of sweet peppers: wounded, inoculated with Botrytis cinerea, wound treated with antifungal composition (Example 10); assay type: in vivo; conditions: 400 ppm natamycin, 600 ppm fenpiclonil or both, 20° C.
Experimental: Ten fresh, organic sweet peppers were used per treatment. The peel of each sweet pepper was wounded once using a cork borer according to the method described by de Lapeyre de Bellaire and Dubois (1987). Subsequently, each wound was inoculated with 10 μl of a Botrytis cinerea suspension containing 1×10^5 of spores/ml. After incubation for 3 hours at 20° C., each wound and the skin area of 0.5 cm around the wound was treated with in total 75 μl of a freshly prepared aqueous antifungal composition comprising either 400 ppm natamycin (DSM Food Specialties, Delft, The Netherlands), 600 ppm fenpiclonil or both. Each antifungal composition also comprised 3.2% (w/w) beeswax, 0.8% (w/w) glycerol, 0.7% (w/w) polyoxyethylene sorbitan monostearate (Tween 60), 0.2% (w/w) polyoxyethylene sorbitan monooleate (Tween 80), 0.05% (w/w) methylhydroxyethyl-cellulose (MHEC), 0.03% (w/w) anti-foaming agent, 0.02% (w/w) xanthan gum, 0.02% (w/w) citric acid, 0.01% (w/w) lactic acid and 0.01% potassium sorbate. A composition without natamycin or fenpiclonil was used as control.
The treated sweet peppers were incubated in a closed box in the dark at 20° C. and assessed on mould growth during incubation. The antifungal activity (in %) of the individual and combined active ingredients was determined by calculating the reduction in mould growth observed on the sweet peppers treated with the antifungal composition in comparison to the mould growth on the sweet peppers treated with the control composition according to the Colby method (Colby, 1967) as described in Example 5.

[2] = tested on: Penicillium italicum; test: Treatment of oranges: wounded, inoculated with Penicillium italicum, wound treated with antifungal composition (Examples 7-9); assay type: in vivo; conditions: 500 ppm natamycin, 400 ppm fenpiclonil or both, oranges, 20° C.
Experimental: The expected antifungal activity (E in %) of the combined antifungal composition comprising both active ingredients was calculated according to the Colby equation (Colby, 1967): E=X+Y−[(X·Y)/100] wherein X and Y are the observed antifungal activities (in %) of the individual active ingredients X and Y, respectively.
Eight fresh, organic oranges were used per treatment. Each orange was soaked in a 180 ppm hypochlorite solution for 10 minutes, then rinsed thoroughly with fresh tap water and dried. The peel of each disinfected orange was wounded once using a cork borer according to the method described by de Lapeyre de Bellaire and Dubois (1987). Subsequently, each wound was inoculated with 10 μl of a Penicillium italicum suspension containing 5×10^5 of spores/ml. After incubation for 3 hours at 20° C., each wound and the orange peel area of 1 cm around the wound was treated with in total […] of a freshly prepared aqueous antifungal composition comprising either 500 ppm natamycin (DSM Food Specialties, Delft, The Netherlands), 300 ppm fludioxonil or both. Each antifungal composition also comprised 3.2% (w/w) beeswax, 0.8% (w/w) glycerol, 0.7% (w/w) polyoxyethylene sorbitan monostearate (Tween 60), 0.1% (w/w) polyoxyethylene sorbitan monooleate (Tween 80), 0.05% (w/w) methylhydroxyethyl-cellulose (MHEC), 0.03% (w/w) anti-foaming agent, 0.02% (w/w) xanthan gum, 0.02% (w/w) citric acid, 0.01% (w/w) lactic acid and 0.01% potassium sorbate. A composition without natamycin or fludioxonil was used as control.
The treated oranges were incubated in a closed box in the dark at 20° C. and assessed on mould growth during a 27-day incubation period.
The experiment was conducted as described in Example 7, except for the fact that each wounded and inoculated orange was treated with 150 μl of a freshly prepared aqueous antifungal composition comprising either 250 ppm natamycin (DSM Food Specialties, Delft, The Netherlands), 100 ppm fludioxonil or both. During incubation, the treated oranges were assessed on mould growth according to the two methods described in Example 5.
The experiment was conducted as described in Example 7, except for the fact that each wounded and inoculated orange was treated with 150 μl of a freshly prepared aqueous antifungal composition comprising either 500 ppm natamycin (DSM Food Specialties, Delft, The Netherlands), 400 ppm fenpiclonil or both. During a 23-day incubation period, the treated oranges were assessed on mould growth according to the two methods described in Example 5.

N#Cc1c[nH]cc1-c1cccc(Cl)c1Cl [Fenpiclonil, fenpiclonil]
Observed antifungal activity O (%) ([1]; 47 days): 0% | Observed antifungal activity O (%) ([1]; 48 days): 0% | Observed antifungal activity O (%) ([1]; 49 days): 0% | Observed antifungal activity O (%) ([1]; 50 days): 0% | Observed antifungal activity O (%) ([2]; 22-23 days): 0% | Observed antifungal activity O (%) ([2]; 12 days): 78% | Observed antifungal activity O (%) ([2]; 13 days): 70% | Observed antifungal activity O (%) ([2]; 14 days): 66% | Observed antifungal activity O (%) ([2]; 15 days): 59% | Observed antifungal activity O (%) ([2]; 16 days): 47% | Observed antifungal activity O (%) ([2]; 18 days): 28% | Observed antifungal activity O (%) ([2]; 19 days): 17% | Observed antifungal activity O (%) ([2]; 20 days): 6% | Observed antifungal activity O (%) ([2]; 21 days): 3% | Number of moulded oranges/total number of 8 oranges ([2]; Day 14-15): 6 and 6/8 | Number of moulded oranges/total number of 8 oranges ([2]; Day 16): 8 and 8/8 | Number of moulded oranges/total number of 8 oranges ([2]; Day 18): 8 and 8/8 | Number of moulded oranges/total number of 8 oranges ([2]; Day 19-23): 8 and 8/8
